Reference: patent publication EP0870499A1, “Oral use of (+)-0-Demethyltramadol as analgesic” (Grünenthal GmbH, priority 1997, dated 1998)
Read-outs that look alike come from different tables or passages of the source.

Tests used:
[1] = Animal experiments on constipating effect (no method given); assay type: in vivo; conditions: compared with Morphin
[2] = tested on: männliche NMRI-Mäuse; assay: Tail-flick test (radiant heat) in the mouse; assay type: in vivo, Maus; conditions: for ED50: Mus musculus
Source text: (§1) Dazu wurden männliche NMRI-Mäuse mit einem Gewicht von 20 bis 25 g oder weibliche Sprague Dawly-Ratten mit einem Gewicht von 120 bis 160 g verwendet. Die Tiere wurden einzeln in Testkäfige gesetzt und die Schwanzbasis einem fokussierten Wärmestrahl einer elektrischen Lampe (Rhema-Analgesiemeter) ausgesetzt. Die Lampenintensität wurde so eingestellt, daß die Zeit vom Einschalten der Lampe bis zum plötzlichen Wegzucken des Schwanzes (Schmerzlatenz) bei unbehandelten Tieren 3 bis 6 Sekunden betrug. Vor Gabe der erfindungsgemäß zu verwendenden Verbindung wurden die Tiere innerhalb von 5 Minuten zweimal getestet und der Mittelwert dieser Messungen als Vortestmittelwert berechnet. Die Schmerzmessung wurde 20, 40 und 60 Minuten nach intravenöser und 30, 60, 90, 120 Minuten nach oraler Gabe durchgeführt. Bei Anstieg der Schmerzlatenz wurde die maximale Expositionszeit auf 12 Sekunden beschränkt und die Zunahme der Latenzzeit von >150 % des Vortestmittelwerts als analgetische Wirkung gewertet. Zur Bestimmung der Dosisabhängigkeit wurden die Verbindungen in 3 bis 5 logarithmisch ansteigenden Dosen, die jeweils die Schwellen- und die maximale Wirkdosis einschlossen, appliziert und aus der Anzahl der Tiere, die analgetische Wirkung zeigten, nach der Methode von Litchfeld und Wilcoxon (J. Pharm. Ex. Ther. 96, 99 bis 113 (1949)) die ED50-Werte bestimmt. Die ED50-Berechnung erfolgte im Wirkmaximum jeweils 20 Minuten nach intravenöser und jeweils 30 Minuten nach oraler Substanzgabe.
(§2) Die Bestimmung der oralen Wirkverfügbarkeit erfolgte aus dem Verhältnis der ED50-Werte bei i.v.- und p.o.-Gabe. Wirkverfügbarkeit =(ED50 i.v.)/(ED50 p.o.) [formula]

[3] = tested on: weibliche Sprague Dawly-Ratten; assay: Tail-flick test (radiant heat) in the rat; conditions: for ED50: Rattus norvegicus
Source text: as §1, §2

[4] = tested on: männliche NMRI-Mäuse; assay: Phenylquinone-induced writhing test in the mouse; assay type: in vivo, Maus
Experimental: Die Untersuchung auf analgetische Wirksamkeit wurde im Phenylchinon-induzierten Writhing an der Maus (modifiziert nach I. C. Hendershot, J. Forsaith, J. Pharmacol. Exp. Ther. 125, 237 - 240 (1959)) durchgeführt. Dazu wurden männliche NMRI-Mäuse mit einem Gewicht von 25 bis 30 g verwendet. Gruppen von 10 Tieren pro Substanzdosis erhielten 10 Minuten nach intravenöser Gabe und 30 Minuten nach oraler Gabe der erfindungsgemäß zu verwendenden Verbindungen 0,3 ml/Maus einer 0,02 %-igen wäßrigen Lösung des Phenylchinon (Phenylbenzochinon, Fa. Sigma, Deisenhofen; Herstellung der Lösung unter Zusatz von 5 % Ethanol und Aufbewahrung im Wasserbad bei 45° C) intraperitoneal appliziert. Die Tiere wurden einzeln in Beobachtungskäfige gesetzt und mittels Drucktastenzähler die Anzahl der Schmerz-induzierten Streckbewegungen (sogenannte Writhing-Reaktionen = Durchdrücken des Körpers nach Abstrecken der Hinterextremitäten) 5 bis 20 Minuten nach der Phenylchinongabe ausgezählt. Aus der dosisabhängigen Abnahme der Writhing-Reaktionen im Vergleich zu parallel untersuchten, nur mit Phenylchinon behandelten Kontrollgruppen wurden mittels Regressionsanalyse (Auswerteprogramm Martens, EDV-Serivce, Eckental) der ED50-Wert für die Hemmung der Writhing-Reaktlon berechnet.

[5] = tested on: weibliche Sprague Dawly-Ratten; conditions: rat, in vivo
Source text: as §1, §2

[6] = iv, 20 min, read-out: ED50-Werte Tail-flick, Ratte i.v.
[7] = po, 0.5 h, read-out: ED50-Werte Tail-flick, Ratte p.o.

Structure (SMILES) | obstipierende Wirkungen [1] | ED50 ([2]; iv, 20 min, read-out: ED50-Werte Tail-flick, Maus i.v.) [mg/kg] | ED50 ([2]; po, 0.5 h, read-out: ED50-Werte Tail-flick, Maus p.o.) [mg/kg] | orale Wirkverfügbarkeit ([2]; Tail-flick, mouse, (ED50 i.v.)/(ED50 p.o.)) | besser oral verfügbar als Morphin ([2]; mouse (tail-flick and writhing taken together), relative to Morphin) [mal] | ED50 [3, 6] [mg/kg] | ED50 [3, 7] [mg/kg] | analgetische Wirkung ([3]; Tail-flick test, rat, result in words) | orale Wirkverfügbarkeit ([3]; Tail-flick, rat, (ED50 i.v.)/(ED50 p.o.)) | besser oral verfügbar als Morphin ([3]; rat, tail-flick, relative to Morphin) [mal] | analgetische Wirkung ([4]; Writhing test, result in words) | orale Wirkverfügbarkeit ([4]; Writhing, (ED50 i.v.)/(ED50 p.o.)) | ED50 ([4]; iv, 10 min, i.v., phenylquinone i.p. 10 min after dosing, read-out: ED50-Werte Writhing, Maus i.v.) [mg/kg] | ED50 ([4]; po, 0.5 h, p.o., phenylquinone i.p. 30 min after dosing, read-out: ED50-Werte Writhing, Maus p.o.) [mg/kg] | orale Wirkverfügbarkeit [5]
CN(C)C[C@H]1CCCC[C@]1(O)c1cccc(O)c1 [(+)-O-Demethyltramadol] | schwächere obstipierende Wirkungen als Morphin | 1.41 | 3.75 | 0,38 | ~5 | 1.01 | 4.9 | ausgeprägte analgetische Wirkung | 0,21 | ~20 | ausgeprägte analgetische Wirkung | 0,26 | 0.49 | 1.87 | –
CN1CC[C@]23c4c5ccc(O)c4O[C@H]2[C@@H](O)C=C[C@H]3[C@H]1C5 [Morphin, reference compound] | – | – | – | – | – | 0.93 | 75 | – | – | – | – | – | – | – | 0,01
